pEC50, pKd: −log10 of the molar value.
Assays:
[1] = biological target: T1, mTLR9ect (extracellular domain of murine TLR9 fused to human IgG1-Fc) (Mus musculus, UniProt Q9EQU3); test: SPR biosensor analysis of mTLR9ect binding to immobilized CpG-DNA
T1 construct: mTLR9ect (aa 1-816); made in house
T1 sequence (Q9EQU3 26-816): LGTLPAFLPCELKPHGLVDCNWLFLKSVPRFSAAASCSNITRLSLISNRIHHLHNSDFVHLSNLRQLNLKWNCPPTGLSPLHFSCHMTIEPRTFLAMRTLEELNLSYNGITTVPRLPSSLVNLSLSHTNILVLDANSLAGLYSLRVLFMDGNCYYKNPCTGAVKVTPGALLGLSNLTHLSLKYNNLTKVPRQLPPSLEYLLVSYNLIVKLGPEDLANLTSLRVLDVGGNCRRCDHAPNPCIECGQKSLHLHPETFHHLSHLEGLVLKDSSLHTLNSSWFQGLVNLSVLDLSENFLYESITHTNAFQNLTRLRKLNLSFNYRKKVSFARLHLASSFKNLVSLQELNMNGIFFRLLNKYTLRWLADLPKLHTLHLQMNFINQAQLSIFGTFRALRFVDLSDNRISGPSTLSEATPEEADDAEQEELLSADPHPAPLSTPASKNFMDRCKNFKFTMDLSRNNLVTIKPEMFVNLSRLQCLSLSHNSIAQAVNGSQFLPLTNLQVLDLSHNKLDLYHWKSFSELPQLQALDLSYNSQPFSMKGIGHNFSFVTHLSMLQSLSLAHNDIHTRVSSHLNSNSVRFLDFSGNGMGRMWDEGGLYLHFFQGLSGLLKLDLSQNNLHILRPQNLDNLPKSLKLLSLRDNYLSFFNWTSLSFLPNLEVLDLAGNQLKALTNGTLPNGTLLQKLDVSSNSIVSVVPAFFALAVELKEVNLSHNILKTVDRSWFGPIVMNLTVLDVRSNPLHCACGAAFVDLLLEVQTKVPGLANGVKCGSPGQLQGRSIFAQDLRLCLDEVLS
Excerpt: Protein. Recombinant fusion proteins consisting of the extracellular domain of Toll-like receptors mTLR9ect (aa 1-816), mTLR9ect-mut (see below) (aa 1-816), hTLR9ect (aa 1-815) and mTLR2ect (aa 1-587) fused to human IgG1-Fc were constructed by amplifying the corresponding extracellular domain and ligating the fragment in frame into a pcDNA3.1(−) (Invitrogen, Netherlands) vector containing the coding sequence for human IgG1-Fc. Fusion proteins were stably expressed in HEK 293 cells and purified from cell lysates by protein A affinity chromatography.
SPR biosensor analysis. Real-time binding of TLR9 or TLR2 was measured by surface plasmon resonance biosensor technology using the BiaCore X system (Uppsala, Sweden). For analysis of TLR9 and TLR2 interaction, biotinylated CpG-DNA and non-CpG-DNA, or biotinylated Pam3CysK4 and PHCK4, respectively, were loaded in running buffer (50 mM MES, 150 mM NaCl, 1 mM MgCl2 at pH 6.5) on SA chips precoated with streptavidin (Biacore AB, Uppsala, Sweden). Non-CpG-DNA or PHCK4 (Wiesmuller K H et al. (1989) Vaccine 7:29-33) served as reference for CpG-DNA and Pam3CysK4 interaction (structure or sequence in Table 1). […] TLR proteins were introduced at 200 nM or as indicated in 40 μl running buffer at a flow rate of 10 μl/min. Binding was measured at 25° C. for 750 s (delay time 300 s). […] Sensorgrams were recorded and kinetic data were calculated by the BiaCore Evaluation program (Biacore, version 3.0.1). Regeneration of the chip was performed by injection of 10 μl 50 mM NaOH, 1 M NaCl and extensive re-equilibration.
For detailed analysis of TLR9-CpG-DNA interaction, surface plasmon resonance (SPR) biosensor based technology was used with CpG- and non-CpG-DNA immobilized onto separate flow cells of a streptavidin-coated chip. Under these settings non-CpG-DNA served as reference for specific binding (see Methods). Binding of mTLR9ect to DNA was CpG-sequence-specific and increased in a dose-dependent manner. […] Using the 1:1 binding model of the BioEvaluation software as fitting algorithm and on the basis of four different mTLR9ect concentrations ranging from 50 to 300 nM, a dissociation constant (Kd) of 200 nM was obtained with low chi-squared residuals (4,76). […] Weber AN et al. (2003) Nat. Immunol. 4:794-800. Furthermore the concentration of CpG-DNA 1668 (SEQ ID NO:1) for half-maximal activation of murine TLR9 has been recently calculated as 70 nM which correlates well with the KD obtained here. Bauer S et al. (2001) Proc. Natl. Acad. Sci. U.S.A. 98:9237-9242. […] This difference in affinity correlates with the observed species-specific variance in CpG-motif recognition, as well as activation potential. Bauer S et al. (2001) Proc. Natl. Acad. Sci. U.S.A. 98:9237-9242.

mTLR9ect = biological target: T2, mTLR9ect (Mus musculus, UniProt Q9EQU3); test: UV-crosslinking of mTLR9ect with 32P-labeled DNA and SDS-PAGE; type: binding, murine; settings: SDS-PAGE, complex at 150 kDa
T2 construct: mTLR9ect (aa 1-816); made in house
T2 sequence (Q9EQU3 26-816): T1 sequence (Q9EQU3 26-816)
Excerpt: FIG. 1B is an image of an SDS-PAGE gel depicting purified proteins from FIG. 1A UV-crosslinked with ^32P-labeled CpG- or non-CpG-DNA, separated by SDS-PAGE, and autoradiographed. TLR9 and free DNA are highlighted.
Bauer S et al. (2001) Proc. Natl. Acad. Sci. U.S.A. 98:9237-9242. To assess binding of TLR9 to CpG-DNA, a recombinant fusion protein consisting of the extracellular domain of murine TLR9 and human IgG 1-Fc (mTLR9ect) was constructed. The extracellular domain of murine TLR2 also fused to IgG1-Fc (mTLR2ect) served as control. Proteins were expressed in HEK 293 cells and purified via protein A affinity chromatography (FIG. 1A). Under denaturing and non-reducing conditions mTLR9ect and mTLR2ect are approximately 10% in a monomeric and 90% in a dimeric form. Dimerization of the proteins is probably mediated by the IgG 1-Fc fusion partner which forms disulfide bonds (FIG. 1A). Initially, binding of mTLR9ect to radiolabeled DNA was determined by UV-crosslinking and subsequent SDS-PAGE.

[2] = biological target: T1, mTLR9ect (extracellular domain of murine TLR9 fused to human IgG1-Fc); test: SPR biosensor analysis of mTLR9ect binding to immobilized CpG-DNA; settings: pH 7.4
murine TLR9 = settings: read-out: concentration for half-maximal activation of murine TLR9; cited from earlier work

Q: With “5′-TCCATGACGTTCCTGATGCT-3′ (chemistry not given here) [CpG-DNA 1668, synthetic CpG oligodeoxynucleotide, TLR9 ligand]” as the substance, how does the pKd ([1]; 1:1 binding model, four mTLR9ect concentrations 50 to 300 nM, running buffer pH 6.5, 25° C., read-out: dissociation constant (Kd)) read?
A: 6.70

Q: What about the “Binding of mTLR9ect to DNA” value ([1]; SPR, non-CpG-DNA as reference, pH 6.5) of the same substance?
A: CpG-sequence-specific

Q: And the “release of bound mTLR9ect by free injected DNA” value ([1]; competition, free DNA added in dissociation phase)?
A: dose dependently released bound mTLR9ect

Q: What about the “TLR9 binding to CpG-DNA” value ([1]; pH 6.5 or 5.5) of the same substance?
A: strong

Q: And the “dissociation of TLR9 from CpG-DNA” value ([1]; pH 6.5 or 5.5)?
A: weak dissociation

Q: What about the “effect of pre-incubation of mTLR9ect with DNA on binding to chip-immobilized CpG-DNA” value ([1]; pre-incubation prior to SPR analysis) of the same substance?
A: abolished binding

Q: What about the “binding of mTLR9ect to radiolabeled DNA” value (mTLR9ect) of the same substance?
A: bound

Q: And the “TLR9 binding to CpG-DNA” value [2]?
A: weak

Q: What about the “dissociation of TLR9 from CpG-DNA” value [2] of the same substance?
A: fairly rapidly

Q: What about the pEC50 (murine TLR9) of the same substance?
A: 7.15

Source: US20050100983A1, “Cell-free methods for identifying compounds that affect toll-like receptor 9 (TLR9) signaling” (Coley Pharmaceutical GmbH, priority 2003, published 2005)
